{"source": "paper PMC9668969", "about": "(Nature Communications, 2022)", "test_system": "WT ELIC", "assay": "Fluorescence stopped-flow liposomal Tl+ flux assay, symmetric liposomes", "type": "biochemical, Erwinia chrysanthemi", "set-up": "Tl+ flux quenching rate, Avg. / Tl+ flux quenching rate: unit not given here", "settings": "for Avg (stopped-flow fluorescence quenching rate) / Rate (stopped-flow fluorescence quenching rate): WT in PC liposomes; for Avg (stopped-flow fluorescence quenching rate): average of experiments; for Rate (stopped-flow fluorescence quenching rate) / Tl+ flux quenching rate: single experiments", "description": "The fluorescence sequential-mixing stopped-flow liposomal flux measurements were carried using an SX20 stopped-flow spectrofluorometer (Applied Photophysics) and Pro-Data SX software[13],[30]. 7.5 mg of the respective lipid mixture (POPC, 1:1 POPC: POPE, 1:1 POPC:POPG, 3:1 POPC:POPE, 3:1 POPC:POPG, 2:1:1 POPC:POPE:POPG) was dried in a glass vial to a thin film under a constant stream of N2. The lipids were then further dried under vacuum in a desiccator overnight. The following day the lipids were hydrated in 500 µl of reconstitution buffer (100 mM NaNO3, 10 mM HEPES, pH 7) (Buffer R), 250 µl of 75 mM 8-Aminonaphthalene-1,3,6-Trisulfonic Acid (ANTS, ThermoFisher Scientific) in buffer R, and doped with ~18 mg of CHAPS (Anatrace). The mixture was vortexed and then sonicated with heat until completely solubilized. Following the sonication, the solution was brought to RT then 3.5 µl of 6.7 mg/ml ELIC in Buffer A with 0.02% DDM was added (3 µg per mg of lipid). This combined solution was incubated at RT for 30 min, followed by the addition of 1 ml of 1:1 v/v SM-2 BioBeads in Buffer R and an additional 250 µl of 75 mM ANTS in Buffer R. This mixture was incubated at RT for 2.5 hr with gentle mixing. The liposome suspension was then extruded with an Avanti mini-extruder and 0.1 µm membrane (30×). The extruded liposomes were stored at 13 °C overnight with gentle rotation. The next day, the liposomes were diluted to 2.5 mL using assay buffer (140 mM NaNO3, 10 mM HEPES, pH 7) (Stopped-flow Buffer A), loaded into a PD-10 desalting column (Cytiva), eluted with 3 mL of Stopped-flow Buffer A and subsequently diluted 5-fold with Stopped-flow Buffer A.\nUsing propylamine as the agonist, the assay and analysis was carried out as previously described[13],[30]. ELIC-containing liposomes were first mixed 1:1 with Buffer A containing 2× the concentration of propylamine. After a variable delay of 10 ms to 25 s, the sample was then mixed 1:1 with a quenching buffer (90 mM NaNO3, 50 mM TlNO3, 10 mM HEPES, pH 7), and ANTS fluorescence (ex. 360 nm, fluorescence above 420 nm) was recorded for 1 s. For each delay time, 5 repeat measurements were obtained. The data were collected using Applied Photophysics Pro-Data SX software. The fluorescence quenching traces were fit to a stretched exponential (Eq. 2a) and the rate of Tl^+ influx was determined at 2 ms (Eq. 2b).2a Ft=F∞+F0−F∞⋅e^−t/τ^β 2b kt=β/τ⋅2ms/τ^(β−1) where Ft, F∞, F0 are the fluorescence at time t, final fluorescence and initial fluorescence. τ is the time constant, β the stretched exponential factor, and kt the calculated rate of Tl^+ influx at 2 ms. The time course of desensitization was also fit to a double exponential and a weighted time constant was calculated as was done for the patch-clamp data using Origin 2019b. All replicates were taken from independent samples.", "note": "Values joined by “and” are separate entries in the source; they are usually repeats but may differ in a detail not shown here. Equal values may be shown once."}
{"molecule": "CCCN", "note": "[propylamine]", "values": [{"measurement": "Avg (stopped-flow fluorescence quenching rate)", "setting": "1 mM PA, delay time 0.1", "value": 0.1082}, {"measurement": "Avg (stopped-flow fluorescence quenching rate)", "setting": "1 mM PA, delay time 0.25", "value": 0.06695}, {"measurement": "Avg (stopped-flow fluorescence quenching rate)", "setting": "1 mM PA, delay time 0.5", "value": 0.1937}, {"measurement": "Avg (stopped-flow fluorescence quenching rate)", "setting": "1 mM PA, delay time 1", "value": 0.6717}, {"measurement": "Avg (stopped-flow fluorescence quenching rate)", "setting": "1 mM PA, delay time 2.5", "value": 0.1973}, {"measurement": "Avg (stopped-flow fluorescence quenching rate)", "setting": "1 mM PA, delay time 5", "value": 0.1019}, {"measurement": "Avg (stopped-flow fluorescence quenching rate)", "setting": "1 mM PA, delay time 10", "value": 0.1686}, {"measurement": "Avg (stopped-flow fluorescence quenching rate)", "setting": "3 mM PA, delay time 0", "value": 0}, {"measurement": "Rate (stopped-flow fluorescence quenching rate)", "setting": "3 mM PA, delay time 0", "value": 0}, {"measurement": "Avg (stopped-flow fluorescence quenching rate)", "setting": "3 mM PA, delay time 0.025", "value": 24.9362}, {"measurement": "Avg (stopped-flow fluorescence quenching rate)", "setting": "3 mM PA, delay time 0.05", "value": 279.785}, {"measurement": "Avg (stopped-flow fluorescence quenching rate)", "setting": "3 mM PA, delay time 0.1", "value": 279.666}, {"measurement": "Avg (stopped-flow fluorescence quenching rate)", "setting": "3 mM PA, delay time 0.25", "value": 300.719}, {"measurement": "Avg (stopped-flow fluorescence quenching rate)", "setting": "3 mM PA, delay time 0.5", "value": 352.59}, {"measurement": "Avg (stopped-flow fluorescence quenching rate)", "setting": "3 mM PA, delay time 1", "value": 284.973}, {"measurement": "Avg (stopped-flow fluorescence quenching rate)", "setting": "3 mM PA, delay time 2.5", "value": 176.344}, {"measurement": "Avg (stopped-flow fluorescence quenching rate)", "setting": "3 mM PA, delay time 5", "value": 145.791}, {"measurement": "Avg (stopped-flow fluorescence quenching rate)", "setting": "3 mM PA, delay time 10", "value": 107.502}, {"measurement": "Avg (stopped-flow fluorescence quenching rate)", "setting": "10 mM PA, delay time 0", "value": 0}, {"measurement": "Rate (stopped-flow fluorescence quenching rate)", "setting": "10 mM PA, delay time 0", "value": 0}, {"measurement": "Avg (stopped-flow fluorescence quenching rate)", "setting": "10 mM PA, delay time 0.01", "value": 3.242}, {"measurement": "Avg (stopped-flow fluorescence quenching rate)", "setting": "10 mM PA, delay time 0.025", "value": 7.793}, {"measurement": "Avg (stopped-flow fluorescence quenching rate)", "setting": "10 mM PA, delay time 0.05", "value": 10.0904}, {"measurement": "Avg (stopped-flow fluorescence quenching rate)", "setting": "10 mM PA, delay time 0.05 as printed in r31 (between 0.25 and 1)", "value": 13.718}, {"measurement": "Avg (stopped-flow fluorescence quenching rate)", "setting": "10 mM PA, delay time 0.1", "value": 10.8806}, {"measurement": "Avg (stopped-flow fluorescence quenching rate)", "setting": "10 mM PA, delay time 0.25", "value": 11.6946}, {"measurement": "Avg (stopped-flow fluorescence quenching rate)", "setting": "10 mM PA, delay time 1", "value": 9.9293}, {"measurement": "Avg (stopped-flow fluorescence quenching rate)", "setting": "10 mM PA, delay time 2.5", "value": 4.516}, {"measurement": "Avg (stopped-flow fluorescence quenching rate)", "setting": "10 mM PA, delay time 5", "value": 0.8684}, {"measurement": "Rate (stopped-flow fluorescence quenching rate)", "setting": "10 mM PA, delay time 10, listed as PA", "value": "0.134 and 0.08335 and 0.06725"}, {"measurement": "Avg (stopped-flow fluorescence quenching rate)", "setting": "30 mM PA, delay time 0", "value": 0}, {"measurement": "Rate (stopped-flow fluorescence quenching rate)", "setting": "30 mM PA, delay time 0", "value": 0}, {"measurement": "Avg (stopped-flow fluorescence quenching rate)", "setting": "30 mM PA, delay time 0.01", "value": 8.996}, {"measurement": "Avg (stopped-flow fluorescence quenching rate)", "setting": "30 mM PA, delay time 0.025", "value": 9.575}, {"measurement": "Avg (stopped-flow fluorescence quenching rate)", "setting": "30 mM PA, delay time 0.05", "value": 10.6204}, {"measurement": "Avg (stopped-flow fluorescence quenching rate)", "setting": "30 mM PA, delay time 0.1", "value": 12.7838}, {"measurement": "Avg (stopped-flow fluorescence quenching rate)", "setting": "30 mM PA, delay time 0.25", "value": 12.1642}, {"measurement": "Avg (stopped-flow fluorescence quenching rate)", "setting": "30 mM PA, delay time 0.5", "value": 10.2984}, {"measurement": "Avg (stopped-flow fluorescence quenching rate)", "setting": "30 mM PA, delay time 1", "value": 6.967}, {"measurement": "Avg (stopped-flow fluorescence quenching rate)", "setting": "30 mM PA, delay time 2.5", "value": 2.226}, {"measurement": "Avg (stopped-flow fluorescence quenching rate)", "setting": "30 mM PA, delay time 5", "value": 0.2318}, {"measurement": "Rate (stopped-flow fluorescence quenching rate)", "setting": "30 mM PA, delay time 25, listed as PA", "value": "0.1998 and 0.3265"}, {"measurement": "Tl+ flux quenching rate", "setting": "WT 1:1 PC:PE 10 mM PA, delay 0.1 s, listed as PA", "value": "18.5265 and 20.1957 and 27.1402"}, {"measurement": "Tl+ flux quenching rate", "setting": "WT 1:1 PC:PE 10 mM PA, delay 0.25 s, listed as PA", "value": "14.1307 and 20.5822 and 22.3191"}, {"measurement": "Tl+ flux quenching rate", "setting": "WT 1:1 PC:PE 10 mM PA, delay 5 s, listed as PA", "value": "8.309 and 12.2434 and 8.587"}, {"measurement": "Tl+ flux quenching rate", "setting": "WT 3:1 PC:PE 10 mM PA, delay 0.05 s, listed as PA", "value": "17.3372 and 23.7705 and 12.3709"}, {"measurement": "Tl+ flux quenching rate", "setting": "WT 3:1 PC:PE 10 mM PA, delay 0.1 s, listed as PA", "value": "25.2651 and 29.8644 and 21.5739"}, {"measurement": "Tl+ flux quenching rate", "setting": "WT 3:1 PC:PE 10 mM PA, delay 0.5 s, listed as PA", "value": "30.0354 and 34.8933 and 24.5328"}, {"measurement": "Tl+ flux quenching rate", "setting": "WT 3:1 PC:PG 10 mM PA, delay 1 s, listed as PA", "value": "9.374 and 10.6202 and 12.8093"}, {"measurement": "Tl+ flux quenching rate", "setting": "WT 3:1 PC:PG 10 mM PA, delay 2.5 s, listed as PA", "value": "7.906 and 8.478 and 12.3833"}, {"measurement": "Tl+ flux quenching rate", "setting": "WT 3:1 PC:PG 10 mM PA, delay 5 s, listed as PA", "value": "5.2352 and 10.1414 and 9.072"}, {"measurement": "Tl+ flux quenching rate", "setting": "WT PC 10 mM PA, delay 10 s, listed as PA", "value": "0.134 and 0.08335 and 0.06725"}]}
